Assay results from BindingDB's records for doi:10.1021/jm00039a013 (Pfizer, 1994).

Test: Inhibitory activity against acetylcholinesterase in mice at the dose of 4.8 mg/kg via intraperitoneal administration

CCCCCCCNC(=O)Oc1ccc2c(c1)[C@]1(C)CCN(C)[C@@H]1N2C [(3aS,8aR)-1,3a,8-trimethyl-1H,2H,3H,3aH,8H,8aH-pyrrolo[2,3-b]indol-5-yl N-heptylcarbamate]
IC50: 148 nM
